Test results taken from paper PMC2824672, “Identification of inhibitors of Plasmodium falciparum phosphoethanolamine methyltransferase using an enzyme-coupled transmethylation assay” (2010).

How the values were obtained:
[1] = molecular target: T1, phosphoethanolamine methyltransferase, PfPMT (Plasmodium falciparum, UniProt Q8IDQ9); test: enzyme-coupled spectrophotometric methyltransferase assay; type: biochemical; set-up: gene PMT; recombinant purified PfPMT (pET-15b)
T1 sequence (Q8IDQ9 1-266): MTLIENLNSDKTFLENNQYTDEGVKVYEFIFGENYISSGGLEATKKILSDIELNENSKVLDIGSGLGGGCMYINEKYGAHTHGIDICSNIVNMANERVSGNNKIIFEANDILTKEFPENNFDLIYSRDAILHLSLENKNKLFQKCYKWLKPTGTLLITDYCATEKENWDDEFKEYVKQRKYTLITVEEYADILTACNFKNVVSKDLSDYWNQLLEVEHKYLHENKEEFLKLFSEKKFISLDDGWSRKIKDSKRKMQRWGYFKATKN

[2] = molecular target: T2, phosphoethanolamine methyltransferase, PfPMT (Plasmodium falciparum, UniProt Q8IDQ9); test: 1H-15N HSQC NMR titration; also inhibition of purified enzyme in coupled assay; type: binding
T2 construct: gene PMT; recombinant 6His-tagged PfPMT (266 residues), 15N-labeled for NMR

[3] = molecular target: T1, phosphoethanolamine methyltransferase, PfPMT; test: 1H-15N HSQC NMR titration (weak; no enzyme inhibition at […]); type: binding; set-up: gene PMT; recombinant 6His-tagged PfPMT, 15N-labeled for NMR
[4] = molecular target: T1, phosphoethanolamine methyltransferase, PfPMT; test: enzyme-coupled assay, substrate turnover by purified enzyme; type: biochemical; set-up: gene PMT; recombinant purified PfPMT (pET-15b)
[5] = molecular target: T1, phosphoethanolamine methyltransferase, PfPMT; test: enzyme-coupled assay, co-substrate turnover by purified enzyme; type: biochemical; set-up: gene PMT; recombinant purified PfPMT (pET-15b)

## CCCCCCCCCCCC[N+](C)(C)C [DDTA, Dodecyltrimethylammonium bromide]
[1]
  inhibition at 500 µM: 25%

## CCN(CC)Cc1cc(Nc2ccnc3cc(Cl)ccc23)ccc1O [AQ, amodiaquine]
[2]
  inhibition at 5 µM: 60%

## CCCCCCCCCCCCCCCC[N+](C)(C)C [HDTA, Hexadecyltrimethylammonium bromide]
[1]
  inhibition at 100 µM: ~50%

## CCCCCCCCCCCCCCCCOP(=O)([O-])OCC[N+](C)(C)C [HePC, Miltefosine]
[1]
  inhibition at 100 µM: ~60%

## CCN(CC)CCCC(C)Nc1ccnc2cc(Cl)ccc12 (stereo not shown) [CQ, chloroquine]
[3]
  1H-15N HSQC NMR titration (weak; no enzyme inhibition at 200 μM): indicating site-specific binding, the affinity of CQ for PfPMT is much lower than that of AQ

## NCCOP(=O)(O)O [P-EA, phosphoethanolamine]
[4]
  enzyme-coupled assay, substrate turnover by purified enzyme: PfPMT activity increased proportionally to the concentration of these substrates

## C[S+](CC[C@H](N)C(=O)[O-])C[C@H]1O[C@@H](n2cnc3c(N)ncnc32)[C@H](O)[C@@H]1O (stereo partly shown) [SAM, S-adenosylmethionine]
[5]
  enzyme-coupled assay, co-substrate turnover by purified enzyme: The effect of increasing concentrations of the substrate P-EA and co-substrate SAM on PfPMT activity was also measured.
